Measured values taken from patent publication US11420958B2, “Aryl and heteroaryl substituted indole compounds” (BRISTOL-MYERS SQUIBB COMPANY, priority 2017, dated 2022).
pIC50: −log10 of the molar value.

Experiments:
Type in all cases: cell-based
human TLR7 = human TLR7 (Homo sapiens (Human), UniProt Q9NYK1); assay: TLR7 inhibition reporter assay (HEK-Blue, SEAP); conditions: HEK-Blue cells overexpressing human TLR7, gardiquimod 7.5 μM stimulation
Procedure, shortened: (§1)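 Percent inhibition of agonist-induced SEAP secretion was scored against DMSO-only and reference-inhibitor controls. Stimulation lasted 22 h at 37 °C following 30 min compound pre-exposure (0.05 nM–50 μM); ligands were gardiquimod 7.5 μM, R848 15.9 μM and ODN2006 5 nM for TLR7, 8 and 9.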

human TLR8 = human TLR8 (Homo sapiens (Human), UniProt Q9NR97); assay: TLR8 inhibition reporter assay (HEK-Blue, SEAP); conditions: HEK-Blue cells overexpressing human TLR8, R848 15.9 μM stimulation
Sequence of human TLR8 (Q9NR97 27-1041): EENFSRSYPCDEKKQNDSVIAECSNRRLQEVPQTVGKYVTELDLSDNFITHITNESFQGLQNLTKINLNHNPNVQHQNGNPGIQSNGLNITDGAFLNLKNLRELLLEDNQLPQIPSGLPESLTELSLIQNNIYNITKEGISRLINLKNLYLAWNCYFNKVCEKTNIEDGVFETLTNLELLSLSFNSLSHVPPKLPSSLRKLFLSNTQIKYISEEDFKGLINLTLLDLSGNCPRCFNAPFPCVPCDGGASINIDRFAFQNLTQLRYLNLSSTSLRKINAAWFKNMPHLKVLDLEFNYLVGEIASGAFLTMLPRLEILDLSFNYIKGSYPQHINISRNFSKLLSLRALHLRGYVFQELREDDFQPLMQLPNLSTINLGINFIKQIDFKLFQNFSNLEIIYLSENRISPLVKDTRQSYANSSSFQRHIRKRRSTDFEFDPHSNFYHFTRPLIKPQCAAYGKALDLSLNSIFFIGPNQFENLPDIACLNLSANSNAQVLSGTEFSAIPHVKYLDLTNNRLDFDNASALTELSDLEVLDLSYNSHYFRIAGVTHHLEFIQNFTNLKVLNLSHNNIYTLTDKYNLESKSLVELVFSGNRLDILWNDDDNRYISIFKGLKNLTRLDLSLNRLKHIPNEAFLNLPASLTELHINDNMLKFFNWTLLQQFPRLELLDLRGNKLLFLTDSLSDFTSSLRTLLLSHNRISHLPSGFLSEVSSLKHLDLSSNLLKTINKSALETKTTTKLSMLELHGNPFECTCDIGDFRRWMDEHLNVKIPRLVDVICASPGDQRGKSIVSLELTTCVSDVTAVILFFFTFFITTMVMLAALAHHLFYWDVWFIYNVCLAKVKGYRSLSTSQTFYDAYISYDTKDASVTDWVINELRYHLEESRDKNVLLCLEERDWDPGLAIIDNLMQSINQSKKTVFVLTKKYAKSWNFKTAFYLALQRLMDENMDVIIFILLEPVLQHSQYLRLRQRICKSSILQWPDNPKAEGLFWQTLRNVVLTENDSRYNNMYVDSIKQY
Procedure, shortened: as §1

human TLR9 = human TLR9 (Homo sapiens (Human), UniProt Q9NR96); assay: TLR9 inhibition reporter assay (HEK-Blue, SEAP); conditions: HEK-Blue cells overexpressing human TLR9, ODN2006 5 nM stimulation
Sequence of human TLR9 (Q9NR96 26-1032): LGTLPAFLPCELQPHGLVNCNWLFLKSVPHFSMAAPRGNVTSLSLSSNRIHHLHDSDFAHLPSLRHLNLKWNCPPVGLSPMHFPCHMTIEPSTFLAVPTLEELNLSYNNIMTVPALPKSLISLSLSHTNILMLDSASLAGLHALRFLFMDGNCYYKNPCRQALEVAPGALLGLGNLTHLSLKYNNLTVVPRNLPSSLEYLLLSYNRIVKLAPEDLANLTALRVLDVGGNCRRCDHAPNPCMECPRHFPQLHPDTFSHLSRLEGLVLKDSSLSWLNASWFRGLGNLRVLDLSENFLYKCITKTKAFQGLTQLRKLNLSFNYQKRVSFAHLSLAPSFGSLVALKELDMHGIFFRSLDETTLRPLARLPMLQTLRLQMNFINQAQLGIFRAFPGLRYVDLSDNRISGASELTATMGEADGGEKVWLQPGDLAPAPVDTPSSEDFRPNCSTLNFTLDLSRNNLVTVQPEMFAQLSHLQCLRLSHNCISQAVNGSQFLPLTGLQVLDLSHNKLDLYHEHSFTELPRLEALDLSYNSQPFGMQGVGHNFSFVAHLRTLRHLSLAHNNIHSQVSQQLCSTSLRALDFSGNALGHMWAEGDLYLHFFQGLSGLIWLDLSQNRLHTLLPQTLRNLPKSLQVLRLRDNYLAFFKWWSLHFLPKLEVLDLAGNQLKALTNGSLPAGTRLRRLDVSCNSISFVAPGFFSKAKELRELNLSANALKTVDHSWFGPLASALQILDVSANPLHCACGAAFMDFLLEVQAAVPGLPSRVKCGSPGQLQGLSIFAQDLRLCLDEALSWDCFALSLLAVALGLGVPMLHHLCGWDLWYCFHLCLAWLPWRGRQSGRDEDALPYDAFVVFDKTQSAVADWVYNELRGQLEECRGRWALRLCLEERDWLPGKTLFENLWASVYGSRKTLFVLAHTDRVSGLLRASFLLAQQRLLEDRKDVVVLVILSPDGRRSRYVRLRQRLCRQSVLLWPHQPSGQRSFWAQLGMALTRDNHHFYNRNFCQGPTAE
Procedure, shortened: as §1

Sequence of human TLR7 (Q9NYK1 27-1049): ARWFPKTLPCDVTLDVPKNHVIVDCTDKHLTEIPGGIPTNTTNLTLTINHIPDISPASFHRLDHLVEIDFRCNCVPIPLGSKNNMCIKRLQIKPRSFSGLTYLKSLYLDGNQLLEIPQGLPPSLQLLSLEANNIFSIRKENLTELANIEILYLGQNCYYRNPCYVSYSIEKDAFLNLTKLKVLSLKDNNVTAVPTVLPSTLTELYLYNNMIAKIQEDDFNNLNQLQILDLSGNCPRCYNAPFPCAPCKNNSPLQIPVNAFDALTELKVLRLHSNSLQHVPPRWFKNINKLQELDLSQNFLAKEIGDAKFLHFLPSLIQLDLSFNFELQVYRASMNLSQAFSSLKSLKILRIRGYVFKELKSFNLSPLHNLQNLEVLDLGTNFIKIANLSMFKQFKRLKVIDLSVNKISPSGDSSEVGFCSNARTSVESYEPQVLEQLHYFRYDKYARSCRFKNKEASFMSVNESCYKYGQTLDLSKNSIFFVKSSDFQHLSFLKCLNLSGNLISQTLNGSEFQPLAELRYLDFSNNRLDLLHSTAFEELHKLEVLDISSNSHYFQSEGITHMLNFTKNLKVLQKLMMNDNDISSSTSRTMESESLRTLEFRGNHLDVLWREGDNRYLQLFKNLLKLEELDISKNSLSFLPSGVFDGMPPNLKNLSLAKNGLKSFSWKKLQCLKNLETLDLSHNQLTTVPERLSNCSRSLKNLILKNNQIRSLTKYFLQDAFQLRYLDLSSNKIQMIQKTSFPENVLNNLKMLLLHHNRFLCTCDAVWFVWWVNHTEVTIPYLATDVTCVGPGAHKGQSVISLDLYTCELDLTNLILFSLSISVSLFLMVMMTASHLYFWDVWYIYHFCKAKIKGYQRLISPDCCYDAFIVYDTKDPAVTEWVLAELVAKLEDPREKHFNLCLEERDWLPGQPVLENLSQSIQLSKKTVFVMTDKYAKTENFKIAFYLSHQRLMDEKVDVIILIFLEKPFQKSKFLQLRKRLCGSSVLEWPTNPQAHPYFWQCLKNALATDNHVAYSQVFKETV

## Cc1cc(-c2[nH]c3ccc(-c4nnc(NC(=O)CN(C)C)o4)cc3c2C(C)C)ccn1 [Example 190, 2-(dimethylamino)-N-(5-(3-isopropyl-2-(2-methylpyridin-4-yl)-1H-indol-5-yl)-1,3,4-oxadiazol-2-yl)acetamide]
Human TLR7
  pIC50: 6.59
Human TLR8
  pIC50: 8.04
Human TLR9
  pIC50: 4.31

## Cc1cc(-c2[nH]c3ccc(-c4nc(C(=O)NC5CCN(C(C)C)CC5)c(C)o4)cc3c2C(C)C)ccn1 [Example 191, 2-(3-isopropyl-2-(2-methylpyridin-4-yl)-1H-indol-5-yl)-N-(1-isopropylpiperidin-4-yl)-5-methyloxazole-4-carboxamide]
Human TLR7
  pIC50: 6.95
Human TLR8
  pIC50: 7.89
Human TLR9
  pIC50: 5.47

## Cc1cc(-c2[nH]c3ccc(-c4nc(C)cs4)cc3c2C(C)C)ccn1 [Example 192, 2-(3-isopropyl-2-(2-methylpyridin-4-yl)-1H-indol-5-yl)-4-methylthiazole]
Human TLR7
  pIC50: 6.00
Human TLR8
  pIC50: 6.67
Human TLR9
  pIC50: 5.54

## Cc1cc(-c2[nH]c3ccc(-c4cnc(N)nc4)cc3c2C(C)C)ccn1 [Example 193, 5-(3-isopropyl-2-(2-methylpyridin-4-yl)-1H-indol-5-yl)pyrimidin-2-amine]
Human TLR7
  pIC50: 6.58
Human TLR8
  pIC50: 7.15
Human TLR9
  pIC50: < 4.30

## Cc1cc(-c2[nH]c3ccc(-c4nc(C(=O)NCC5CCNC5)c(C)o4)cc3c2C(C)C)ccn1 (stereo not drawn) [Example 194, 2-(3-isopropyl-2-(2-methylpyridin-4-yl)-1H-indol-5-yl)-5-methyl-N-(pyrrolidin-3-ylmethyl)oxazole-4-carboxamide]
Human TLR7
  pIC50: 6.95
Human TLR8
  pIC50: 7.07
Human TLR9
  pIC50: 4.93

## CC(C)c1c(-c2ccnc3[nH]ncc23)[nH]c2ccc(-c3nnc(C(=O)NCCN(C)C)s3)cc12 [Example 195, N-(2-(dimethylamino)ethyl)-5-(3-isopropyl-2-(1H-pyrazolo[3,4-b]pyridin-4-yl)-1H-indol-5-yl)-1,3,4-thiadiazole-2-carboxamide]
Human TLR7
  pIC50: 7.74
Human TLR8
  pIC50: 8.60
Human TLR9
  pIC50: 6.18

## Cc1cc(-c2[nH]c3ccc(-c4nnc(C5CCNCC5)[nH]4)cc3c2C(C)C)ccn1 [Example 196, 3-isopropyl-2-(2-methylpyridin-4-yl)-5-(5-(piperidin-4-yl)-4H-1,2,4-triazol-3-yl)-1H-indole]
Human TLR7
  pIC50: 6.56
Human TLR8
  pIC50: 7.08
Human TLR9
  pIC50: 5.16

## Cc1cc(-c2[nH]c3ccc(-c4nc(C(=O)NCC5CCNC5)co4)cc3c2C(C)C)ccn1 (stereo not drawn) [Example 197, 2-(3-isopropyl-2-(2-methylpyridin-4-yl)-1H-indol-5-yl)-N-(pyrrolidin-3-ylmethyl)oxazole-4-carboxamide]
Human TLR7
  pIC50: 6.36
Human TLR8
  pIC50: 7.21
Human TLR9
  pIC50: 4.89

## Cc1cc(-c2[nH]c3ccc(-c4ccc(NC(=O)CN(C)C)nc4)cc3c2C(C)C)ccn1 [Example 198, 2-(dimethylamino)-N-(5-(3-isopropyl-2-(2-methylpyridin-4-yl)-1H-indol-5-yl)pyridin-2-yl)acetamide]
Human TLR7
  pIC50: 7.59
Human TLR8
  pIC50: 8.52
Human TLR9
  pIC50: 6.18

## Cc1cc(-c2[nH]c3ccc(-c4cnc(C5CCNCC5)s4)cc3c2C(C)C)ccn1 [Example 199, 5-(3-isopropyl-2-(2-methylpyridin-4-yl)-1H-indol-5-yl)-2-(piperidin-4-yl)thiazole]
Human TLR7
  pIC50: 7.43
Human TLR8
  pIC50: 8.31
Human TLR9
  pIC50: 5.96

## Cc1cc(-c2[nH]c3ccc(-c4ccnc(N)c4)cc3c2C(C)C)ccn1 [Example 200, 4-(3-isopropyl-2-(2-methylpyridin-4-yl)-1H-indol-5-yl)pyridin-2-amine]
Human TLR7
  pIC50: 8.02
Human TLR8
  pIC50: 8.01
Human TLR9
  pIC50: 6.14

## Cc1cc(-c2[nH]c3ccc(-c4sc(C5CCNCC5)nc4C)cc3c2C(C)C)ccn1 [Example 201, 5-(3-isopropyl-2-(2-methylpyridin-4-yl)-1H-indol-5-yl)-4-methyl-2-(piperidin-4-yl)thiazole]
Human TLR7
  pIC50: 8.00
Human TLR8
  pIC50: 8.54
Human TLR9
  pIC50: 5.74

## CNCCNc1ccc(-c2ccc3[nH]c(-c4ccnc(C)c4)c(C(C)C)c3c2)cn1 [Example 202, N1-(5-(3-isopropyl-2-(2-methylpyridin-4-yl)-1H-indol-5-yl)pyridin-2-yl)-N2-methylethane-1,2-diamine]
Human TLR7
  pIC50: 7.96
Human TLR8
  pIC50: 8.89
Human TLR9
  pIC50: 6.31

## CC(C)c1c(-c2ccnc3[nH]ncc23)[nH]c2ccc(-c3nnc(C(=O)NC4CCN(C(C)C)CC4)s3)cc12 [Example 203, 5-(3-isopropyl-2-(1H-pyrazolo[3,4-b]pyridin-4-yl)-1H-indol-5-yl)-N-(1-isopropylpiperidin-4-yl)-1,3,4-thiadiazole-2-carboxamide]
Human TLR7
  pIC50: 7.25
Human TLR8
  pIC50: 8.11
Human TLR9
  pIC50: 6.03

## Cc1cc(-c2[nH]c3ccc(-c4nnc(C5CCCN(C(C)C)C5)[nH]4)cc3c2C(C)C)ccn1 (stereo not drawn) [Example 204, 3-isopropyl-5-(5-(1-isopropylpiperidin-3-yl)-4H-1,2,4-triazol-3-yl)-2-(2-methylpyridin-4-yl)-1H-indole]
Human TLR7
  pIC50: 7.17
Human TLR8
  pIC50: 8.24
Human TLR9
  pIC50: 6.66

## Cc1cc(-c2[nH]c3ccc(-c4nnc(C5CCCN(C(C)C)C5)[nH]4)cc3c2C(C)C)ccn1 (stereo not drawn) [Example 205, 3-isopropyl-5-(5-(1-isopropylpiperidin-3-yl)-4H-1,2,4-triazol-3-yl)-2-(2-methylpyridin-4-yl)-1H-indole]
Human TLR7
  pIC50: 7.49
Human TLR8
  pIC50: 8.26
Human TLR9
  pIC50: 6.61

## CC(C)c1c(-c2ccnc3[nH]ncc23)[nH]c2ccc(-c3nc4n(n3)CCNC4)cc12 [Example 206, 2-(3-isopropyl-2-(1H-pyrazolo[3,4-b]pyridin-4-yl)-1H-indol-5-yl)-5,6,7,8-tetrahydro-[1,2,4]triazolo[1,5-a]pyrazine]
Human TLR7
  pIC50: 5.35
Human TLR8
  pIC50: 7.96
Human TLR9
  pIC50: < 4.30

## Cc1cc(-c2[nH]c3ccc(-c4ccc(NC(=O)[C@H]5CCNC5)nc4)cc3c2C(C)C)ccn1 [Example 207, (S)—N-(5-(3-isopropyl-2-(2-methylpyridin-4-yl)-1H-indol-5-yl)pyridin-2-yl)pyrrolidine-3-carboxamide]
Human TLR7
  pIC50: 7.08
Human TLR8
  pIC50: 7.85
Human TLR9
  pIC50: 5.78

## CC(C)c1c(-c2ccnc3[nH]ncc23)[nH]c2ccc(-c3cc(N4CCC(N)CC4)ncn3)cc12 [Example 208, 1-(6-(3-isopropyl-2-(1H-pyrazolo[3,4-b]pyridin-4-yl)-1H-indol-5-yl)pyrimidin-4-yl)piperidin-4-amine]
Human TLR7
  pIC50: 6.86
Human TLR8
  pIC50: 8.03
Human TLR9
  pIC50: 5.92

## Cc1cc(-c2[nH]c3ccc(-c4ccc(NC(=O)[C@@H]5CCNC5)nc4)cc3c2C(C)C)ccn1 [Example 209, (R)—N-(5-(3-isopropyl-2-(2-methylpyridin-4-yl)-1H-indol-5-yl)pyridin-2-yl)pyrrolidine-3-carboxamide]
Human TLR7
  pIC50: 6.77
Human TLR8
  pIC50: 7.17
Human TLR9
  pIC50: 6.08

## CC(C)c1c(-c2ccnc3[nH]ncc23)[nH]c2ccc(-c3nc4n(n3)CCN(C3CCN(C(C)C)CC3)C4)cc12 [Example 211, 2-(3-isopropyl-2-(1H-pyrazolo[3,4-b]pyridin-4-yl)-1H-indol-5-yl)-7-(1-isopropylpiperidin-4-yl)-5,6,7,8-tetrahydro-[1,2,4]triazolo[1,5-a]pyrazine]
Human TLR7
  pIC50: 6.67
Human TLR8
  pIC50: 8.00
Human TLR9
  pIC50: 5.74

## Cc1oc(-c2ccc3[nH]c(-c4ccnc5[nH]ncc45)c(C(C)C)c3c2)nc1C(=O)NCC1CCNC1 (stereo not drawn) [Example 212, 2-(3-isopropyl-2-(1H-pyrazolo[3,4-b]pyridin-4-yl)-1H-indol-5-yl)-5-methyl-N-(pyrrolidin-3-ylmethyl)oxazole-4-carboxamide]
Human TLR7
  pIC50: 5.98
Human TLR8
  pIC50: 6.96
Human TLR9
  pIC50: 4.92

## Cc1cc(-c2[nH]c3ccc(-c4nnc(C5CN6CCC5CC6)o4)cc3c2C(C)C)ccn1 (stereo not drawn) [Example 213, 2-(3-isopropyl-2-(2-methylpyridin-4-yl)-1H-indol-5-yl)-5-(quinuclidin-3-yl)-1,3,4-oxadiazole]
Human TLR7
  pIC50: 7.33
Human TLR8
  pIC50: 8.48
Human TLR9
  pIC50: 6.18

## CC(C)CN1CCC(NC(=O)c2nnc(-c3ccc4[nH]c(-c5ccnc6[nH]ncc56)c(C(C)C)c4c3)o2)CC1 [Example 214, N-(1-isobutylpiperidin-4-yl)-5-(3-isopropyl-2-(1H-pyrazolo[3,4-b]pyridin-4-yl)-1H-indol-5-yl)-1,3,4-oxadiazole-2-carboxamide]
Human TLR7
  pIC50: 6.69
Human TLR8
  pIC50: 8.36
Human TLR9
  pIC50: 6.16

## CNC(=O)c1c(-c2ccc3[nH]c(-c4ccnc(C)c4)c(C(C)C)c3c2)nn2c1CNCC2 [Example 215, 2-(3-isopropyl-2-(2-methylpyridin-4-yl)-1H-indol-5-yl)-N-methyl-4,5,6,7-tetrahydropyrazolo[1,5-a]pyrazine-3-carboxamide]
Human TLR7
  pIC50: 8.01
Human TLR8
  pIC50: 7.85
Human TLR9
  pIC50: 4.68

## Cc1cc(-c2[nH]c3ccc(-c4nn5c(c4C(N)=O)CNCC5)cc3c2C(C)C)ccn1 [Example 216, 2-(3-isopropyl-2-(2-methylpyridin-4-yl)-1H-indol-5-yl)-4,5,6,7-tetrahydropyrazolo[1,5-a]pyrazine-3-carboxamide]
Human TLR7
  pIC50: 7.60
Human TLR8
  pIC50: 8.16
Human TLR9
  pIC50: 4.46

## CNCCN1CCn2nc(-c3ccc4[nH]c(-c5ccnc6[nH]ncc56)c(C(C)C)c4c3)nc2C1 [Example 217, 2-(2-(3-isopropyl-2-(1H-pyrazolo[3,4-b]pyridin-4-yl)-1H-indol-5-yl)-5,6-dihydro-[1,2,4]triazolo[1,5-a]pyrazin-7(8H)-yl)-N-methylethan-1-amine]
Human TLR7
  pIC50: 6.38
Human TLR8
  pIC50: 7.39
Human TLR9
  pIC50: < 4.30
